Data: patent US7863302B2, “Compounds and methods for modulating FX-receptors” (Eli Lilly and Company, priority 2006, dated 2011)

Columns and labels:
[1] = target: T1, human FXR ligand-binding domain (Homo sapiens, UniProt Q96RI1); assay: FXR-SRC-1 Cofactor Recruitment Assay (Alpha Screen); type: biochemical; conditions: SRC-1 FXR interaction, 4 hours at room temperature
T1 construct: 6-HIS
T1 sequence (Q96RI1 242-472 isoform Q96RI1-2 limits assumed): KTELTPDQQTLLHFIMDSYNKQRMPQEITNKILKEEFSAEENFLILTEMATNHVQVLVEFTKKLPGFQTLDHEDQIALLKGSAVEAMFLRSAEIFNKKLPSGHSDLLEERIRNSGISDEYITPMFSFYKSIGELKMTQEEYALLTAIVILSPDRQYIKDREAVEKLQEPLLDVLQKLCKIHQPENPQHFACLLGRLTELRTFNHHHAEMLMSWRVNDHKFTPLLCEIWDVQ
T1 sequence (Q15788 600-774 partner limits assumed): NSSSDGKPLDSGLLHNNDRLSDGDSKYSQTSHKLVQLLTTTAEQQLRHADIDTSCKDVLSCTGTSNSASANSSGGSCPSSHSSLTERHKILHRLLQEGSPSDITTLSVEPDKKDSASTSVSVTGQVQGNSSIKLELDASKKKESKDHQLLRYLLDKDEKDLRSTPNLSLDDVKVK
Method: FXR-SRC-1 Cofactor Recruitment Assay
Compounds are tested in concentration-response curves by an FXR-SRC-1 Cofactor Recruitment assay using the Alpha (Amplified Luminescent Proximity Homogeneous Assay) Screen technology according to the manufacturer instructions (Perkin Elmer). Briefly, purified 6-HIS-tagged human FXR ligand-binding domain (amino acids 242-472), purified GST-tagged human SRC-1 nuclear receptor-interacting domain (amino acids 220-394), Nickel Chelate donor beads (Perkin Elmer) and Anti-GST antibody acceptor beads (Perkin Elmer) are mixed together and 12 μL per well is aliquoted into 384 well plates. Add compounds in 3 μL per well for a total assay volume of 15 μL and incubate at room temperature in the dark for 4 hours. After incubation, compounds that bind FXR and induce the interaction between the FXR and SRC-1 would bring the two bead types into proximity generating luminescence that is quantified using a Packard Fusion instrument. Calculate EC50 values for each test compound. Compounds of the invention are found to be effective in the SRC-1 FXR interaction assay with EC50 of about 365-3000 nM.

LDLR−/− mice = assay: LDLR−/− Serum Lipid Modulation; type: in vivo; conditions: 10 mg/kg once daily by oral gavage for seven days, male LDLR−/− mice on western diet
Method: LDLR−/− Serum Lipid Modulation
Acquire LDLR−/− mice from Jackson Laboratories (Stock number 002207, Bar Harbor, Me., USA). Acclimate animals for one week prior to study initiation. House mice individually in polycarbonate cages with filter tops, and maintain mice on a 12:12 hour light-dark cycle (lights on at 6:00 AM) at 21° C. Provide deionized water ad libitum and maintain for two weeks on ‘western diet’ TD 98137 Diet (42% fat, 0.15% cholesterol, Harlan Teklad) ad libitum. Optimize groups of five ten-week-old male LDLR−/− mice based on serum triglyceride and cholesterol levels. Dose groups once daily by oral gavage with various doses of the test compound for seven days. At the end of the seven-day dosing period, collect blood by tail clip for clinical chemistry assessment. Measure serum triglycerides, glucose, and total cholesterol using standard clinical chemistry instrumentation and reagents (Roche Diagnostic, Indianapolis, Ind., USA). Asphyxiate mice in a CO2 chamber. Perform cardiac puncture to collect blood samples for serum FPLC analysis. Assay pooled serum samples for lipoprotein cholesterol fraction values (VLDL, LDL, HDL) by separation on a size exclusion column (Superose® 6HR, Pharmacia Biotech AB, Uppsala, Sweden) with in-line determination of cholesterol.

Cc1cc(OCc2c(-c3ccccc3OC(F)(F)F)noc2C2CC2)ccc1-c1ccc2c(C(=O)O)cn(C)c2c1 [Example 7, 6-{4-[5-Cyclopropyl-3-(2-trifluoromethoxy-phenyl)-isoxazol-4-ylmethoxy]-2-methyl-phenyl}-1-methyl-1H-indole-3-carboxylic acid] gave an EC50 [1] of 1300 nM, a lowers total cholesterol (LDLR−/− mice) of 63% and a lowers triglycerides (LDLR−/− mice) of 61%.
